Laboratory results: PMC9037358 (RSC Advances, 2021)

Key:
[1] = test system: K. pneumonia; assay: Anti-biofilm activity; assay type: cell-based; conditions: 50 μg mL^−1
[2] = test system: MDA-MB-231; assay: MTT cytotoxicity assay; assay type: cell-based; conditions: Homo sapiens, MDA-MB-231, 48 h, read-out: Cytotoxicity IC50 μM ± S.D. MDA-MB-231
[3] = test system: MCF-7; assay: MTT cytotoxicity assay; assay type: cell-based; conditions: Homo sapiens, MCF7, 48 h, read-out: Cytotoxicity IC50 μM ± S.D. MCF-7
[4] = test system: Proteus vulgaris; assay: Antimicrobial activity; assay type: cell-based; conditions: 24 h, read-out: inhibition ratio% P. vulgaris
[5] = MTT cytotoxicity assay, normal breast cell line; assay type: cell-based, human; conditions: human, MCF 10A normal breast cells
[6] = test system: P. vulgaris; assay: Anti-biofilm activity; assay type: cell-based; conditions: 50 μg mL^−1
[7] = test system: E. coli; assay: Anti-biofilm activity; assay type: cell-based; conditions: 50 μg mL^−1
[8] = test system: S. aureus; assay: Anti-biofilm activity; assay type: cell-based; conditions: 50 μg mL^−1
[9] = test system: Staphylococcus aureus NRRL B-767; assay: Antimicrobial activity; assay type: cell-based; conditions: 50 μg mL^−1, NA: not active
[10] = test system: Salmonella typhimurium; assay: Antimicrobial activity; assay type: cell-based; conditions: 50 μg mL^−1; NA: not active
[11] = test system: S. typhimurium; assay: Anti-biofilm activity; assay type: cell-based; conditions: 50 μg mL^−1
[12] = test system: Escherichia coli ATCC 25955; assay: Antimicrobial activity; assay type: cell-based; conditions: 50 μg mL^−1; NA: not active
[13] = test system: Klebsiella pneumonia; assay: Antimicrobial activity; assay type: cell-based; conditions: 50 μg mL^−1; NA: not active
[14] = biological target: carbonic anhydrase II (Homo sapiens, UniProt P00918); assay: In vitro carbonic anhydrase II enzyme inhibition; assay type: biochemical
[15] = test system: MCF 10A; assay: MTT cytotoxicity assay, normal breast cell line; assay type: cell-based, human; conditions: both breast cancer cell lines vs MCF-10A
[16] = biological target: carbonic anhydrase IX (Homo sapiens, UniProt Q16790); assay: In vitro carbonic anhydrase IX enzyme inhibition; assay type: biochemical
[17] = test system: Candida albicans ATCC 10231; assay: Antimicrobial activity; assay type: cell-based; conditions: 50 μg mL^−1; NA: not active
[18] = test system: S. flexenari; conditions: cited from earlier work
[19] = test system: E. coli; conditions: cited from earlier work
[20] = test system: P. aeruginosa; assay: Anti-biofilm activity; assay type: cell-based; conditions: 50 μg mL^−1
[21] = test system: MDA-MB-231; assay: Cellular uptake assay; assay type: cell-based, human; conditions: HPLC
[22] = test system: MDA-MB-231; assay: Cell cycle analysis; assay type: cell-based, human; conditions: compared to positive control
[23] = test system: MDA-MB-231; assay: Annexin V-FITC apoptosis assay; assay type: cell-based, human
[24] = test system: CA IX; conditions: read-out: CA IX IC50; as reported; cited from earlier work

NS(=O)(=O)c1ccc(NC2=NC(=O)/C(=C\c3ccc(C(=O)O)cc3)S2)cc1 [Compound 4f, (E)-4-((4-oxo-2-(4-Sulfamoylphenylamino)thiazol-5(4H)-ylidene)methyl)benzoic acid]
Biofilm inhibition ratio% K. pneumonia [1]: 10.08% | IC50 [2]: 17.2 ± 0.7 µM | IC50 [3]: 36 ± 1.4 µM | inhibition of growth at 50 µg/mL [4]: 3.39% | IC50 at 48 h [5]: 30.3 ± 1.1 µM | Biofilm inhibition ratio% P. vulgaris [6]: 64.67% | Biofilm inhibition ratio% E. coli [7]: 19.89% | Biofilm inhibition ratio% S. aureus [8]: 21.43% | inhibition ratio% S. aureus [9]: 57.93% | inhibition ratio% S. typhimurium [10]: 45.72% | Biofilm inhibition ratio% S. typhimurium [11]: 36.57% | inhibition ratio% E. coli [12]: 46.45% | inhibition ratio% K. pneumonia [13]: 26.80%

NS(=O)(=O)c1ccc(NC2=NC(=O)/C(=C\c3ccc([N+](=O)[O-])cc3)S2)cc1 [Compound 4g, (E)-4-(5-(4-Nitrobenzylidene)-4-oxo-4,5-dihydrothiazol-2-ylamino)benzenesulfonamide]
Biofilm inhibition ratio% K. pneumonia [1]: 79.46% | IC50 [2]: 5.54 ± 0.2 µM | IC50 [14]: 1.55 µM | IC50 [3]: 2.55 ± 0.1 µM | inhibition of growth at 50 µg/mL [4]: 23.3% | selectivity to breast cancer cell lines over MCF-10A [15]: 8.5 times | IC50 at 48 h [5]: 47.9 ± 1.7 µM | Biofilm inhibition ratio% S. aureus [8]: 35.24% | inhibition ratio% S. aureus [9]: 69.74% | IC50 ([16]; CA IX IC50 (nM)±S.D.): 17 nM | IC50 ([16]; CA IX IC50 (μM)): 17 nM | inhibition ratio% S. typhimurium [10]: 60.97%

C[C@@H]1[C@H](O)[C@@H](C)/C=C/C=C/CC/C=C/C=C/C=C/C=C/C(O[C@H]2O[C@H](C)[C@@H](O)[C@H](N)[C@@H]2O)CC2O[C@](O)(CC(O)C(O)CCC(O)CC(O)CC(O)CC(=O)O[C@H]1C)CC(O)C2C(=O)O (stereo partly shown) [Nys, nystatin, reference compound]
inhibition ratio% C. albicans [17]: 99.21%

C[C@@H](O)[C@H]1C(=O)N2C(C(=O)O)=C(SCCN=CN)C[C@H]12 [imipenem]
zone inhibition (ZI) S. flexenari [18]: 27 mm | zone inhibition (ZI) E. coli [19]: 30 mm

NS(=O)(=O)c1ccc(NC2=NC(=O)/C(=C\c3ccc(Cl)cc3)S2)cc1 [Compound 4d, (E)-4-(5-(4-Chlorobenzylidene)-4-oxo-4,5-dihydrothiazol-2-ylamino)benzenesulfonamide]
IC50 [2]: 1.88 ± 0.1 µM | IC50 [3]: 15.5 ± 0.6 µM | IC50 at 48 h [5]: 22.9 ± 0.8 µM

COc1cc(/C=C2/SC(Nc3ccc(S(N)(=O)=O)cc3)=NC2=O)ccc1O [Compound 4h, (E)-4-(5-(4-Hydroxy-3-methoxybenzylidene)-4-oxo-4,5-dihydrothiazol-2-ylamino)benzenesulfonamide]
Biofilm inhibition ratio% K. pneumonia [1]: 77.52% | IC50 [2]: 1.56 ± 0.1 µM | IC50 [14]: 2.19 µM | IC50 [3]: 1.52 ± 0.1 µM | inhibition of growth at 50 µg/mL [4]: 19.1% | selectivity to breast cancer cell lines over MCF-10A [15]: 17.5 times | IC50 at 48 h [5]: 26.1 ± 1.1 µM | Biofilm inhibition ratio% P. aeruginosa [20]: 35.96% | Biofilm inhibition ratio% P. vulgaris [6]: 50.54% | Biofilm inhibition ratio% E. coli [7]: 19.89% | Biofilm inhibition ratio% S. aureus [8]: 19.39% | inhibition ratio% S. aureus [9]: 68.30% | IC50 ([16]; CA IX IC50 (nM)±S.D.): 25.6 nM | IC50 ([16]; CA IX IC50 (μM)): 26 nM | inhibition ratio% S. typhimurium [10]: 59.11% | Biofilm inhibition ratio% S. typhimurium [11]: 66.86% | inhibition ratio% E. coli [12]: 29.51% | level of compound taken up into MDA-MB-231 cell line [21]: 17.07 µg/mL | inhibition ratio% K. pneumonia [13]: 33.51%

C=CCc1cc(/C=C2/SC(Nc3ccc(S(N)(=O)=O)cc3)=NC2=O)c(O)c(OC)c1 [Compound 4e, (E)-4-(5-(5-Allyl-2-hydroxy-3-methoxybenzylidene)-4-oxo-4,5-dihydrothiazol-2-ylamino)benzenesulfonamide]
arrest in the S phase [22]: 1.4 fold | increase in the percentage of cells at pre-G1 [22]: 22 fold | Biofilm inhibition ratio% K. pneumonia [1]: 18.60% | IC50 [2]: 3.58 ± 0.1 µM | IC50 [14]: 3.92 µM | IC50 [3]: 4.58 ± 1.8 µM | inhibition of growth at 50 µg/mL [4]: 42% | selectivity to breast cancer cell lines over MCF-10A [15]: 5.5 times | IC50 at 48 h [5]: 19.4 ± 0.7 µM | Biofilm inhibition ratio% P. vulgaris [6]: 61.41% | Biofilm inhibition ratio% E. coli [7]: 15.47% | necrosis phase ([23]; upper left quadrant): 16.65% | annexin V-FITC-positive cells, late apoptotic phase ([23]; upper right quadrant): 22.04% | Biofilm inhibition ratio% S. aureus [8]: 45.92% | inhibition ratio% S. aureus [9]: 80.69% | IC50 ([16]; CA IX IC50 (nM)±S.D.): 10.9 nM | IC50 ([16]; CA IX IC50 (μM)): 11 nM | inhibition ratio% S. typhimurium [10]: 75.09% | Biofilm inhibition ratio% S. typhimurium [11]: 63.43% | inhibition ratio% E. coli [12]: 60.66% | level of compound taken up into MDA-MB-231 cell line [21]: 12.5 µg/mL | inhibition ratio% K. pneumonia [13]: 62.89%

CN(C)c1ccc(/C=C2/SC(Nc3ccc(S(N)(=O)=O)cc3)=NC2=O)cc1 [Compound 4j, (E)-4-(5-(4-(Dimethylamino)benzylidene)-4-oxo-4,5-dihydrothiazol-2-ylamino)benzenesulfonamide]
IC50 [2]: 10.1 ± 0.4 µM | IC50 [3]: 26.6 ± 1 µM | inhibition of growth at 50 µg/mL [4]: 5.08% | IC50 at 48 h [5]: 13.1 ± 0.5 µM

O=C(O)c1cn(C2CC2)c2cc(N3CCNCC3)c(F)cc2c1=O [Cip, ciprofloxacin, reference compound]
inhibition of growth at 50 µg/mL [4]: 99.8% | inhibition ratio% S. aureus [9]: 99.25% | inhibition ratio% S. aureus ([9]; listed as CIP): 99.2% | inhibition ratio% S. typhimurium [10]: 99.56% | inhibition ratio% E. coli [12]: 99.1% | inhibition ratio% K. pneumonia [13]: 99.7%

COc1cc(/C=C2/SC(Nc3ccc(S(N)(=O)=O)cc3)=NC2=O)cc(OC)c1OC [Compound 4i, (E)-4-(4-oxo-5-(3,4,5-Trimethoxybenzylidene)-4,5-dihydrothiazol-2-ylamino)benzenesulfonamide]
Biofilm inhibition ratio% K. pneumonia [1]: 5.43% | IC50 [2]: 16.3 ± 0.6 µM | IC50 [3]: 4.05 ± 0.2 µM | IC50 at 48 h [5]: 14.2 ± 0.5 µM | Biofilm inhibition ratio% P. vulgaris [6]: 7.61% | Biofilm inhibition ratio% E. coli [7]: 49.72% | Biofilm inhibition ratio% S. aureus [8]: 22.55% | Biofilm inhibition ratio% S. typhimurium [11]: 22.86%

NS(=O)(=O)c1ccc(NC2=NC(=O)/C(=C\c3ccccc3)S2)cc1 [Compound 4a, (E)-4-(5-Benzylidene-4-oxo-4,5-dihydrothiazol-2-ylamino)benzenesulfonamide]
IC50 [2]: 12.8 ± 0.5 µM | IC50 [3]: 9.63 ± 0.4 µM | IC50 at 48 h [5]: 24.2 ± 0.9 µM

COc1ccc(/C=C2/SC(Nc3ccc(S(N)(=O)=O)cc3)=NC2=O)cc1 [Compound 4c, (E)-4-(5-(4-Methoxybenzylidene)-4-oxo-4,5-dihydrothiazol-2-ylamino)benzenesulfonamide]
IC50 [2]: 6.31 ± 0.2 µM | IC50 [3]: 3.67 ± 0.1 µM | IC50 at 48 h [5]: 22.7 ± 0.8 µM

NS(=O)(=O)c1ccc(NC2=NC(=O)/C(=C\c3ccc(O)cc3)S2)cc1 [Compound 4b, (E)-4-(5-(4-Hydroxybenzylidene)-4-oxo-4,5-dihydrothiazol-2-ylamino)benzenesulfonamide]
Biofilm inhibition ratio% K. pneumonia [1]: 78.29% | IC50 [2]: 14.6 ± 0.6 µM | IC50 [3]: 3.63 ± 0.1 µM | IC50 at 48 h [5]: 17.8 ± 0.6 µM | Biofilm inhibition ratio% P. aeruginosa [20]: 45.51% | inhibition ratio% C. albicans [17]: 8.87% | Biofilm inhibition ratio% P. vulgaris [6]: 16.85% | Biofilm inhibition ratio% E. coli [7]: 18.78% | Biofilm inhibition ratio% S. aureus [8]: 53.06%
